{"source": "patent US20230157952A1", "about": "“METHOD FOR IMPROVING THE STABILITY OF A PHARMACEUTICAL COMPOSITION COMPRISING A HIGH PENETRATION DRUG, AND THE PHARMACEUTICAL COMPOSITION OBTAINED THEREFROM” (Techfields Inc., priority 2020, published 2023)", "assay": "Effect of temperature (and pH) on the stability of the solution (purity)", "type": "physicochemical", "conditions": "7% solution in water", "data": [{"smiles": "CCN(CC)CCOC(=O)COC(=O)Cc1c(C)n(C(=O)c2ccc(Cl)cc2)c2ccc(OC)cc12.Cl", "values": [{"measurement": "Purity(%) at day 0", "setting": "pH 1.0, day 0", "result": "98.1 ± 0.3", "unit": "%"}, {"measurement": "Purity(%) at day 21 (5° C.)", "setting": "pH 1.0, day 21, 5° C.", "result": "91.9 ± 0.3", "unit": "%"}, {"measurement": "Purity(%) at day 21 (25° C.)", "setting": "pH 1.0, day 21, 25° C.", "result": "67.3 ± 0.3", "unit": "%"}, {"measurement": "Purity(%) at day 21 (40° C.)", "setting": "pH 1.0, day 21, 40° C.", "result": "15.6 ± 0.3", "unit": "%"}, {"measurement": "Purity (%) at day 21 (60° C.)", "setting": "pH 1.0, day 21, 60° C.", "result": 0, "unit": "%"}, {"measurement": "Purity(%) at day 0", "setting": "pH 2.0, day 0", "result": "98.3 ± 0.3", "unit": "%"}, {"measurement": "Purity(%) at day 21 (5° C.)", "setting": "pH 2.0, day 21, 5° C.", "result": "95.7 ± 0.2", "unit": "%"}, {"measurement": "Purity(%) at day 21 (25° C.)", "setting": "pH 2.0, day 21, 25° C.", "result": "82.2 ± 0.2", "unit": "%"}, {"measurement": "Purity(%) at day 21 (40° C.)", "setting": "pH 2.0, day 21, 40° C.", "result": "26.7 ± 0.3", "unit": "%"}, {"measurement": "Purity (%) at day 21 (60° C.)", "setting": "pH 2.0, day 21, 60° C.", "result": 0, "unit": "%"}, {"measurement": "Purity(%) at day 0", "setting": "pH 3.0, day 0", "result": "98.5 ± 0.2", "unit": "%"}, {"measurement": "Purity(%) at day 21 (5° C.)", "setting": "pH 3.0, day 21, 5° C.", "result": "98.0 ± 0.2", "unit": "%"}, {"measurement": "Purity(%) at day 21 (25° C.)", "setting": "pH 3.0, day 21, 25° C.", "result": "93.0 ± 0.2", "unit": "%"}, {"measurement": "Purity(%) at day 21 (40° C.)", "setting": "pH 3.0, day 21, 40° C.", "result": "47.7 ± 0.3", "unit": "%"}, {"measurement": "Purity (%) at day 21 (60° C.)", "setting": "pH 3.0, day 21, 60° C.", "result": 0, "unit": "%"}, {"measurement": "Purity(%) at day 0", "setting": "pH 3.7, day 0", "result": "98.7 ± 0.1", "unit": "%"}, {"measurement": "Purity(%) at day 21 (5° C.)", "setting": "pH 3.7, day 21, 5° C.", "result": "98.2 ± 0.1", "unit": "%"}, {"measurement": "Purity(%) at day 21 (25° C.)", "setting": "pH 3.7, day 21, 25° C.", "result": "97.1 ± 0.1", "unit": "%"}, {"measurement": "Purity(%) at day 21 (40° C.)", "setting": "pH 3.7, day 21, 40° C.", "result": "57.6 ± 0.2", "unit": "%"}, {"measurement": "Purity (%) at day 21 (60° C.)", "setting": "pH 3.7, day 21, 60° C.", "result": "13.9 ± 0.3", "unit": "%"}, {"measurement": "Purity(%) at day 0", "setting": "pH 4.0, day 0", "result": "98.7 ± 0.1", "unit": "%"}, {"measurement": "Purity(%) at day 21 (5° C.)", "setting": "pH 4.0, day 21, 5° C.", "result": "98.4 ± 0.1", "unit": "%"}, {"measurement": "Purity(%) at day 21 (25° C.)", "setting": "pH 4.0, day 21, 25° C.", "result": "97.4 ± 0.2", "unit": "%"}, {"measurement": "Purity(%) at day 21 (40° C.)", "setting": "pH 4.0, day 21, 40° C.", "result": "68.7 ± 0.3", "unit": "%"}, {"measurement": "Purity (%) at day 21 (60° C.)", "setting": "pH 4.0, day 21, 60° C.", "result": "19.2 ± 0.3", "unit": "%"}, {"measurement": "Purity(%) at day 0", "setting": "pH 4.3, day 0", "result": "98.8 ± 0.2", "unit": "%"}, {"measurement": "Purity(%) at day 21 (5° C.)", "setting": "pH 4.3, day 21, 5° C.", "result": "98.5 ± 0.1", "unit": "%"}, {"measurement": "Purity(%) at day 21 (25° C.)", "setting": "pH 4.3, day 21, 25° C.", "result": "97.5 ± 0.1", "unit": "%"}, {"measurement": "Purity(%) at day 21 (40° C.)", "setting": "pH 4.3, day 21, 40° C.", "result": "68.6 ± 0.3", "unit": "%"}, {"measurement": "Purity (%) at day 21 (60° C.)", "setting": "pH 4.3, day 21, 60° C.", "result": "17.9 ± 0.2", "unit": "%"}, {"measurement": "Purity(%) at day 0", "setting": "pH 4.6, day 0", "result": "98.8 ± 0.2", "unit": "%"}, {"measurement": "Purity(%) at day 21 (5° C.)", "setting": "pH 4.6, day 21, 5° C.", "result": "98.4 ± 0.2", "unit": "%"}, {"measurement": "Purity(%) at day 21 (25° C.)", "setting": "pH 4.6, day 21, 25° C.", "result": "96.5 ± 0.2", "unit": "%"}, {"measurement": "Purity(%) at day 21 (40° C.)", "setting": "pH 4.6, day 21, 40° C.", "result": "53.7 ± 0.2", "unit": "%"}, {"measurement": "Purity (%) at day 21 (60° C.)", "setting": "pH 4.6, day 21, 60° C.", "result": "14.8 ± 0.3", "unit": "%"}, {"measurement": "Purity(%) at day 0", "setting": "pH 5.0, day 0", "result": "98.6 ± 0.2", "unit": "%"}, {"measurement": "Purity(%) at day 21 (5° C.)", "setting": "pH 5.0, day 21, 5° C.", "result": "97.1 ± 0.2", "unit": "%"}, {"measurement": "Purity(%) at day 21 (25° C.)", "setting": "pH 5.0, day 21, 25° C.", "result": "93.8 ± 0.2", "unit": "%"}, {"measurement": "Purity(%) at day 21 (40° C.)", "setting": "pH 5.0, day 21, 40° C.", "result": "39.8 ± 0.3", "unit": "%"}, {"measurement": "Purity (%) at day 21 (60° C.)", "setting": "pH 5.0, day 21, 60° C.", "result": "3.2 ± 0.2", "unit": "%"}, {"measurement": "Purity(%) at day 0", "setting": "pH 6.0, day 0", "result": "98.4 ± 0.2", "unit": "%"}, {"measurement": "Purity(%) at day 21 (5° C.)", "setting": "pH 6.0, day 21, 5° C.", "result": "95.8 ± 0.2", "unit": "%"}, {"measurement": "Purity(%) at day 21 (25° C.)", "setting": "pH 6.0, day 21, 25° C.", "result": "86.9 ± 0.2", "unit": "%"}, {"measurement": "Purity(%) at day 21 (40° C.)", "setting": "pH 6.0, day 21, 40° C.", "result": "28.8 ± 0.2", "unit": "%"}, {"measurement": "Purity (%) at day 21 (60° C.)", "setting": "pH 6.0, day 21, 60° C.", "result": 0, "unit": "%"}, {"measurement": "Purity(%) at day 0", "setting": "pH 7.0, day 0", "result": "98.1 ± 0.2", "unit": "%"}, {"measurement": "Purity(%) at day 21 (5° C.)", "setting": "pH 7.0, day 21, 5° C.", "result": "90.2 ± 0.3", "unit": "%"}, {"measurement": "Purity(%) at day 21 (25° C.)", "setting": "pH 7.0, day 21, 25° C.", "result": "59.7 ± 0.3", "unit": "%"}, {"measurement": "Purity(%) at day 21 (40° C.)", "setting": "pH 7.0, day 21, 40° C.", "result": "11.2 ± 0.4", "unit": "%"}, {"measurement": "Purity (%) at day 21 (60° C.)", "setting": "pH 7.0, day 21, 60° C.", "result": 0, "unit": "%"}, {"measurement": "Purity(%) at day 0", "setting": "pH 8.0, day 0", "result": "97.7 ± 0.3", "unit": "%"}, {"measurement": "Purity(%) at day 21 (5° C.)", "setting": "pH 8.0, day 21, 5° C.", "result": "78.5 ± 0.2", "unit": "%"}, {"measurement": "Purity(%) at day 21 (25° C.)", "setting": "pH 8.0, day 21, 25° C.", "result": "47.9 ± 0.3", "unit": "%"}, {"measurement": "Purity(%) at day 21 (40° C.)", "setting": "pH 8.0, day 21, 40° C.", "result": 0, "unit": "%"}, {"measurement": "Purity (%) at day 21 (60° C.)", "setting": "pH 8.0, day 21, 60° C.", "result": 0, "unit": "%"}]}]}
